Experiment in all cases: Antibacterial activity test (agar dilution MIC)
Common to all, as to assay type: cell-based
In general terms: In agar dilution, organisms are placed on agar that contains the substance at set levels.

Assay [1] deals with Streptococcus pyogenes Cook. The note with it: test bacterium E = Streptococcus pyogenes Cook; blood agar medium, 37° C., about 20 hours; read-out: Minimum inhibitory concentration (MIC). The procedure:
(§1) In vitro antibacterial activities of the compounds of Examples 13, 28, 35, 43, 53 to 55, 64, 70, 84, 90, 94, 95, 108, 128, and 129 were measured as follows by referring to the standard method of the Japanese Society of Chemotherapy (Chemotherapy, Vol. 29, pp. 76-79, 1981). The antibacterial activity of midecamycin (MDM) was similarly measured for comparison.
(§2) Using each solution of the test substance prepared in methanol at a concentration of […], 2-fold serial dilutions were prepared by using methanol. Each of the prepared solutions of the test substances was put into a petri dish in a volume of 200 μl, added with 10 ml of agar medium for sensitivity measurement added with 5% horse sterile defibrinated blood, 15 μg/ml of β-nicotinamide-adenine dinucleotide, and 2.5 μg/ml of Hemin, and mixed for dilution to prepare an agar plate containing a test substance. A predetermined volume of a liquid medium for sensitivity measurement, prepared so as to contain a given number of test bactera, was inoculated on the agar plate containing a test substance by using a micro planter (Sakuma Seisakusho), and after the inoculation, the bacteria were cultured at 37° C. for about 20 hours. After the culture, presence or absence of growth of the test bacteria on the plate was observed by visual inspection, and the minimum concentration at which growth was not observed was determined as the minimum inhibitory concentration (MIC) of the test sustance.

In assay [2] the test system is Streptococcus pneumoniae TH-662. Particulars: TH662; test bacterium D = Streptococcus pneumoniae TH-662; blood agar medium, 37° C., about 20 hours; read-out: Minimum inhibitory concentration (MIC). How it is done: as §1, §2
The subject of assay [3] is Haemophilus influenzae 9334. Particulars: test bacterium G = Haemophilus influenzae 9334; blood agar medium, 37° C., about 20 hours; read-out: Minimum inhibitory concentration (MIC). How it is done:
as §1, §2

Assay [4] concerns Streptococcus pneumoniae DP1 TypeI. Particulars: DP1TYPEI; test bacterium B = Streptococcus pneumoniae DP1 TypeI; blood agar medium, 37° C., about 20 hours; read-out: Minimum inhibitory concentration (MIC). How it is done:
as §1, §2

Assay [5] relates to Staphylococcus aureus 209P JC-1. The note with it: test bacterium A = Staphylococcus aureus 209P JC-1; blood agar medium, 37° C., about 20 hours; read-out: Minimum inhibitory concentration (MIC). How it is done: as §1, §2
Assay [6] has as its system Moraxella catarrhalis W-0506. The note with it: W0506; test bacterium F = Moraxella catarrhalis W-0506; blood agar medium, 37° C., about 20 hours; read-out: Minimum inhibitory concentration (MIC). How it is done: as §1, §2
In assay [7] the test system is Streptococcus pneumoniae IP692. The note with it: test bacterium C = Streptococcus pneumoniae IP692; blood agar medium, 37° C., about 20 hours; read-out: Minimum inhibitory concentration (MIC). How it is done:
as §1, §2

≈ marks a conversion by molar mass, not a printed value.

Consider `CCC(=O)O[C@@H]1CC(=O)O[C@H](C)CCCN(CCCCc2ccccc2)C[C@H](O)[C@H](C)C[C@H](CC=O)[C@H](O[C@@H]2OC(C)[C@@H](O[C@H]3CC(C)(OC(C)=O)[C@@H](OC(=O)CC)C(C)O3)C(N(C)C)C2O)[C@H]1OC` (stereo partly drawn) [Example 43], for which the MIC in assay [1] is 0.13 µg/mL (≈ 0.131 µM); in assay [2], 1 µg/mL (≈ 1.01 µM); in assay [3], 0.5 µg/mL (≈ 0.503 µM); in assay [4], 0.06 µg/mL (≈ 0.0604 µM); in assay [5], 0.25 µg/mL (≈ 0.252 µM); in assay [6], 0.5 µg/mL (≈ 0.503 µM). For the same compound, the MIC in assay [7] came to 0.06 µg/mL (≈ 0.0604 µM).

As for `CCC(=O)O[C@@H]1CC(=O)O[C@@H](C/C=C/c2cnc3ccccc3c2)CCCN(C)C[C@H](O)[C@H](C)C[C@H](CC=O)[C@H](O[C@@H]2OC(C)[C@@H](O[C@H]3CC(C)(O)[C@@H](OC(=O)CC)C(C)O3)C(N(C)C)C2O)[C@H]1OC` (stereo partly drawn) [Example 53], the MIC in assay [1] was determined as 0.06 µg/mL (≈ 0.0608 µM); in assay [2] it was 8 µg/mL (≈ 8.11 µM); in assay [3], 2 µg/mL (≈ 2.03 µM); in assay [4] it was 0.015 µg/mL (≈ 0.0152 µM); in assay [5] it was 0.5 µg/mL (≈ 0.507 µM); in assay [6], 1 µg/mL (≈ 1.01 µM). The MIC in assay [7] turned out to be 0.03 µg/mL (≈ 0.0304 µM).

Regarding `CCC(=O)O[C@@H]1CC(=O)O[C@@H](C/C=C/c2ccc3ccccc3c2)CCCN(C)C[C@H](O)[C@H](C)C[C@H](CC=O)[C@H](O[C@@H]2OC(C)[C@@H](O[C@H]3CC(C)(OC(C)=O)[C@@H](OC(=O)CC)C(C)O3)C(N(C)C)C2O)[C@H]1OC` (stereo partly drawn) [Example 95], the MIC came out at 0.25 µg/mL (≈ 0.243 µM) in assay [1]; 1 µg/mL (≈ 0.973 µM) in assay [2]; 32 µg/mL (≈ 31.2 µM) in assay [3]; 0.06 µg/mL (≈ 0.0584 µM) in assay [4]; 1 µg/mL (≈ 0.973 µM) in assay [5]; 4 µg/mL (≈ 3.89 µM) in assay [6]. In addition, the MIC in assay [7] was 0.13 µg/mL (≈ 0.127 µM).

The values are drawn from patent publication US7365174B2, “Azalide and azalactam derivatives and method for producing the same” (Meiji Seika Kaisha, Ltd., priority 2003, dated 2008).
